# Experimental data published in patent publication US20240058308A1, “TREATMENT AND PREVENTION OF DRY MACULAR DEGENERATION” (The Regents of the University of Michigan, priority 2021, published 2024).
# System: ARPE-19
# Assay: LC3 colocalization to UAM granules
# Type: cell-based, human
# Conditions: ARPE-19 treated with drug
# Excerpt: FIG. 5. Autophagy inducer FLBZ reduces accumulation of lipofuscin-like material. (A) Lipofuscin-like material, which we term undigestible autofluorescent material (UAM), accumulates in RPE after repeated feedings of photo-oxidized outer segments (oxOS). UAM granules (green). DAPI (blue). Phalloidin stain of F-actin outlining cell borders (pink). Scale bar: 10 μm. (B) Effects of FLBZ or Torin on UAM accumulation (left) and elimination (right). FLBZ or Torin is fed together with oxOS daily for 20 days in a month (left, n=5) or fed daily for 20 days in a month after completion of oxOS feedings to stimulate UAM accumulation (right, n=7). Unlike Torin, FLBZ both reduces UAM accumulation and increases UAM elimination. DMSO as vehicle control. U 673 AM normalized to DMSO condition. […] UAM (red). LC3 (green). DAPI (blue). Arrows indicate LC3 puncta surrounding a lipofuscin granule. Scale bar: 2 μm. (D) Effects of FLBZ on UAM granule size. Compared to vehicle (DMSO), FLBZ decreases UAM granule size both during oxOS feedings (left) and after UAM buildup has already occurred (right). n=40. ns p>0.05, *p<0.05, **p<0.01, ***p<0.001.
# Human fetal eyes were obtained from Advanced Bioscience Resources (ABR, Alameda, California) and cultured [Ref. 43; incorporated by reference in its entirety]. ARPE-19 cells were cultured at passage 19 [Ref. 51; incorporated by reference in its entirety].
compound,measurement,value
"COC(=O)Nc1nc2cc(C(=O)c3ccc(F)cc3)ccc2[nH]1 [FLBZ, Flubendazole]",LC3 colocalization to UAM granules,LC3 colocalization to UAM granules
